Assay results published in the NIST ThermoML archive (doi:10.1007/s10765-008-0535-5).

Conditions: Liquid, Pycnometric method

FCF [difluoromethane]
Conditions | mass density [kg/m3]
268.15 K, 8268 kPa | 1093.5
268.15 K, 8502 kPa | 1093.5
269.15 K, 9280 kPa | 1093.3
269.15 K, 9512 kPa | 1093.3
270.15 K, 10291 kPa | 1093.2
270.15 K, 10521 kPa | 1093.2
271.15 K, 11302 kPa | 1093
271.15 K, 11531 kPa | 1093
272.15 K, 12312 kPa | 1092.9
272.15 K, 12421 kPa | 1092.9
272.15 K, 12540 kPa | 1092.9
273.15 K, 13321 kPa | 1092.7
273.15 K, 13429 kPa | 1092.8
273.15 K, 13551 kPa | 1092.7
274.15 K, 14330 kPa | 1092.6
274.15 K, 14438 kPa | 1092.6
274.15 K, 14560 kPa | 1092.6
275.15 K, 15337 kPa | 1092.4
275.15 K, 15444 kPa | 1092.4
275.15 K, 15568 kPa | 1092.4
276.15 K, 16344 kPa | 1092.3
276.15 K, 16452 kPa | 1092.3
276.15 K, 16577 kPa | 1092.3
277.15 K, 17350 kPa | 1092.1
277.15 K, 17457 kPa | 1092.1
277.15 K, 17583 kPa | 1092.1
278.15 K, 18354 kPa | 1092
278.15 K, 18462 kPa | 1092
278.15 K, 18589 kPa | 1092
279.15 K, 19358 kPa | 1091.8
279.15 K, 19465 kPa | 1091.8
279.15 K, 19595 kPa | 1091.8
280.15 K, 20361 kPa | 1091.7
280.15 K, 20468 kPa | 1091.7
280.15 K, 20598 kPa | 1091.7
281.15 K, 21363 kPa | 1091.5
281.15 K, 21470 kPa | 1091.5
281.15 K, 21601 kPa | 1091.5
282.15 K, 22363 kPa | 1091.4
282.15 K, 22472 kPa | 1091.4
282.15 K, 22602 kPa | 1091.4
283.15 K, 23363 kPa | 1091.2
283.15 K, 23473 kPa | 1091.2
283.15 K, 23603 kPa | 1091.2
284.15 K, 24362 kPa | 1091.1
284.15 K, 24472 kPa | 1091.1
284.15 K, 24606 kPa | 1091
285.15 K, 25359 kPa | 1090.9
285.15 K, 25470 kPa | 1090.9
285.15 K, 25603 kPa | 1090.9
286.15 K, 26356 kPa | 1090.8
286.15 K, 26466 kPa | 1090.8
286.15 K, 26598 kPa | 1090.7
287.15 K, 27351 kPa | 1090.6
287.15 K, 27461 kPa | 1090.6
287.15 K, 27594 kPa | 1090.6
288.15 K, 28345 kPa | 1090.4
288.15 K, 28454 kPa | 1090.4
288.15 K, 28588 kPa | 1090.4
289.15 K, 5774 kPa | 1015.9
289.15 K, 5835 kPa | 1015.9
289.15 K, 29338 kPa | 1090.3
289.15 K, 29446 kPa | 1090.3
289.15 K, 29581 kPa | 1090.3
290.15 K, 6570 kPa | 1015.8
290.15 K, 6631 kPa | 1015.8
291.15 K, 7365 kPa | 1015.7
291.15 K, 7428 kPa | 1015.7
292.15 K, 8161 kPa | 1015.6
292.15 K, 8224 kPa | 1015.5
293.15 K, 8956 kPa | 1015.5
293.15 K, 9019 kPa | 1015.4
294.15 K, 9752 kPa | 1015.3
294.15 K, 9815 kPa | 1015.3
295.15 K, 10546 kPa | 1015.2
295.15 K, 10610 kPa | 1015.2
296.15 K, 11341 kPa | 1015.1
296.15 K, 11405 kPa | 1015.1
297.15 K, 12135 kPa | 1015
297.15 K, 12199 kPa | 1014.9
298.15 K, 12929 kPa | 1014.9
298.15 K, 12993 kPa | 1014.8
299.15 K, 13723 kPa | 1014.7
299.15 K, 13787 kPa | 1014.7
300.15 K, 14517 kPa | 1014.6
300.15 K, 14581 kPa | 1014.6
301.15 K, 15309 kPa | 1014.5
301.15 K, 15374 kPa | 1014.4
302.15 K, 16102 kPa | 1014.4
302.15 K, 16167 kPa | 1014.3
303.15 K, 16894 kPa | 1014.2
303.15 K, 16960 kPa | 1014.2
304.15 K, 17685 kPa | 1014.1
304.15 K, 17752 kPa | 1014.1
305.15 K, 18476 kPa | 1014
305.15 K, 18543 kPa | 1014
306.15 K, 19267 kPa | 1013.9
306.15 K, 19335 kPa | 1013.8
307.15 K, 20125 kPa | 1013.7
308.15 K, 20848 kPa | 1013.6
308.15 K, 20915 kPa | 1013.6
309.15 K, 21639 kPa | 1013.5
309.15 K, 21704 kPa | 1013.4
310.15 K, 22429 kPa | 1013.4
310.15 K, 22492 kPa | 1013.3
311.15 K, 23217 kPa | 1013.3
311.15 K, 23281 kPa | 1013.2
312.15 K, 24005 kPa | 1013.2
312.15 K, 24068 kPa | 1013.1
313.15 K, 24793 kPa | 1013
313.15 K, 24855 kPa | 1012.9
314.15 K, 25579 kPa | 1012.9
314.15 K, 25641 kPa | 1012.8
315.15 K, 26364 kPa | 1012.8
315.15 K, 26427 kPa | 1012.7
316.15 K, 27149 kPa | 1012.7
316.15 K, 27212 kPa | 1012.6
317.15 K, 27934 kPa | 1012.5
317.15 K, 27996 kPa | 1012.4
318.15 K, 28719 kPa | 1012.4
318.15 K, 28779 kPa | 1012.3
